According to patent US11415579B2, “Assay for measuring a rate of reaction between a target and a ligand candidate” (Imperial College Innovations Ltd., priority 2016, dated 2022):

Key:
Cdk2(T182C) (C177A) = molecular target: T1, Cdk2(T182C) (C177A) (Homo sapiens, UniProt P24941, C177A/T182C); assay: Kinetic thiol consumption assay with Cdk2 mutant T182C; assay type: binding; parameters: key to Rate enhancement, Cdk2 T182C: rate constant with Cdk2 ÷ rate constant with model thiol (fold); details: additional mutation C177A; for Rate constant with Cdk2 T182C: Protein: Cdk2, cysteine position T182C, in h^-1
T1 construct: poly-histidine; made in house; host or cells: E. coli
Summary of the method: (§1)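 His-tagged single-surface-cysteine Cdk2 mutants (C177A background) from E. coli, 5 μM in degassed phosphate buffer pH 8, pre-treated with immobilized TCEP beads. Fluorescence (ex/em 380/470 nm) read after 1 h at room temperature, normalized to DMSO/thiol-only control; first-order decay fits gave rate constants, divided by model-thiol rate for rate enhancement.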

Cdk2[C177A, F80C, K278C] = molecular target: T2, Cdk2[C177A, F80C, K278C] (Homo sapiens, UniProt P24941, C177A/F80C/K278C); assay: Kinetic thiol consumption assay with mutant Cdk2 as model thiol; assay type: binding; parameters: unit not given here; details: 500 μM ligand, 5 μM thiol, phosphate buffer pH 8
T2 construct: poly-histidine; made in house; host or cells: E. coli
Summary of the method: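 Model thiol: His-tagged human Cdk2 C177A/F80C/K278C (two engineered surface cysteines), E. coli-expressed, 5 μM in degassed phosphate buffer pH 8 with immobilized TCEP beads (2% v/v). Fluorescence (ex/em 380/470 nm) followed over time at room temperature, normalized to DMSO/thiol control. First-order decay fit gives rate constants.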

Cdk2(S276C) (C177A) = molecular target: T3, Cdk2(S276C) (C177A) (Homo sapiens, UniProt P24941, C177A/S276C); assay: Kinetic thiol consumption assay with Cdk2 mutant S276C; assay type: binding; parameters: key to Rate enhancement, Cdk2 S276C: rate constant with Cdk2 ÷ rate constant with model thiol (fold); details: additional mutation C177A; for Rate constant with Cdk2 S276C: Protein: Cdk2, cysteine position S276C, in h^-1
T3 construct: poly-histidine; made in house; host or cells: E. coli
Summary of the method: as §1

[1] = molecular target: T4, human cyclin-dependent kinase 2 (Cdk2) (Homo sapiens, UniProt P24941); assay: Kinetic thiol consumption assay with wild type Cdk2 (C177); assay type: binding; parameters: key to Rate enhancement, Cdk2 WT: k(Cdk2) divided by k(model thiol); Rate constant with Cdk2 (k(Cdk2)): unit not given here; details: for Rate constant with Cdk2 (k(Cdk2)): 500 μM ligand, 5 μM thiol, phosphate buffer pH 8; for Rate enhancement, Cdk2 WT: no additional mutations; for Rate constant with Cdk2 WT: Protein: Cdk2, cysteine position WT, in h^-1; for k(Cdk2)/k(Cdk2_mut) rate enhancement: model thiol Cdk2[C177A, F80C, K278C]; for k(Cdk2)/k(GSH) rate enhancement: model thiol glutathione
T4 construct: poly-histidine; made in house; host or cells: E. coli
Summary of the method: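 His-tagged human Cdk2 (single surface cysteine C177), expressed in E. coli, or a model thiol at 5 μM in degassed phosphate buffer pH 8 was pre-treated with immobilized TCEP beads (2% v/v) before acrylamide addition. Fluorescence (ex/em 380/470 nm) was read after 1 h at room temperature, normalized to DMSO/thiol-only control and plotted versus time.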

Cdk2(S181C) (C177A) = molecular target: T5, Cdk2(S181C) (C177A) (Homo sapiens, UniProt P24941, C177A/S181C); assay: Kinetic thiol consumption assay with Cdk2 mutant S181C; assay type: binding; parameters: key to Rate enhancement, Cdk2 S181C: rate constant with Cdk2 ÷ rate constant with model thiol (fold); details: additional mutation C177A; for Rate constant with Cdk2 S181C: Protein: Cdk2, cysteine position S181C, in h^-1
T5 construct: poly-histidine; made in house; host or cells: E. coli
Summary of the method: as §1

[2] = Kinetic thiol consumption assay with model thiol glutathione; assay type: physicochemical; parameters: Rate constant with glutathione (k(GSH)): unit not given here; details: for Rate constant with glutathione (k(GSH)): 500 μM ligand, 5 μM thiol, phosphate buffer pH 8; for Rate constant with Glutathione: Protein: Glutathione, cysteine position NA, in h-1
Summary of the method: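 Rate constants for acrylamide reaction with 5 μM glutathione come from first-order exponential fits of normalized fluorescence decay (ex 380, em 470 nm). Reactions run in degassed phosphate buffer at pH 8 containing TCEP beads, room temperature.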

Cdk2(H71C) (C177A) = molecular target: T6, Cdk2(H71C) (C177A) (Homo sapiens, UniProt P24941, C177A/H71C); assay: Kinetic thiol consumption assay with Cdk2 mutant H71C; assay type: binding; parameters: key to Rate enhancement, Cdk2 H71C: rate constant with Cdk2 ÷ rate constant with model thiol (fold); details: additional mutation C177A; for Rate constant with Cdk2 H71C: Protein: Cdk2, cysteine position H71C, in h^-1
T6 construct: poly-histidine; made in house; host or cells: E. coli
Summary of the method: as §1

Cdk2(N272C) (C177A) = molecular target: T7, Cdk2(N272C) (C177A) (Homo sapiens, UniProt P24941, C177A/N272C); assay: Kinetic thiol consumption assay with Cdk2 mutant N272C; assay type: binding; parameters: key to Rate enhancement, Cdk2 N272: rate constant with Cdk2 ÷ rate constant with model thiol (fold); details: for Rate enhancement, Cdk2 N272: Cdk2 N272, additional mutation C177A; for Rate constant with Cdk2 N272C: Protein: Cdk2, cysteine position N272C, additional mutation C177A, in h^-1
T7 construct: poly-histidine; made in house; host or cells: E. coli
Summary of the method: as §1

Cdk2(R122C) (C177A) = molecular target: T8, Cdk2(R122C) (C177A) (Homo sapiens, UniProt P24941, C177A/R122C); assay: Kinetic thiol consumption assay with Cdk2 mutant R122C; assay type: binding; parameters: key to Rate enhancement, Cdk2 R122C: rate constant with Cdk2 ÷ rate constant with model thiol (fold); details: additional mutation C177A; for Rate constant with Cdk2 R122C: Protein: Cdk2, cysteine position R122C, in h-1
T8 construct: poly-histidine; made in house; host or cells: E. coli
Summary of the method: as §1

Cdk2(C177A, F80C) = molecular target: T9, Cdk2(C177A, F80C) (Homo sapiens, UniProt P24941, C177A/F80C); assay: Kinetic thiol consumption assay with Cdk2 mutant F80C, incl. kobs versus concentration (Kd, k2); assay type: binding; parameters: key to Rate enhancement, Cdk2 F80C: Cdk2 rate constant divided by model-thiol rate constant; details: additional mutation C177A; for Rate constant with Cdk2 F80C: Protein: Cdk2, cysteine position F80C, in h^-1
T9 construct: poly-histidine; made in house; host or cells: E. coli
Summary of the method: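 His-tagged Cdk2(C177A/F80C) from E. coli or model thiol, 5 μM in degassed phosphate buffer pH 8 with TCEP beads, reacted with acrylamide ligands; fluorescence (ex/em 380/470 nm) normalized to DMSO control and fitted to first-order decay for kobs. Kd and k2 obtained from hyperbolic fit of kobs versus ligand concentration.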

Rate enhancement, Cdk2 T182C (Cdk2(T182C) (C177A)) | Rate constant with Cdk2 T182C (Cdk2(T182C) (C177A)) | Rate constant with Cdk2[C177A, F80C, K278C] (k(Cdk2_mut)) (Cdk2[C177A, F80C, K278C]) | Rate enhancement, Cdk2 S276C (Cdk2(S276C) (C177A)) | Rate constant with Cdk2 S276C (Cdk2(S276C) (C177A)) | Rate constant with Cdk2 (k(Cdk2)) [1] | Rate enhancement, Cdk2 WT [1] | Rate constant with Cdk2 WT [1] | k(Cdk2)/k(Cdk2_mut) rate enhancement [1] | k(Cdk2)/k(GSH) rate enhancement [1] | Rate enhancement, Cdk2 S181C (Cdk2(S181C) (C177A)) | Rate constant with Cdk2 S181C (Cdk2(S181C) (C177A)) | Rate enhancement, Cdk2 H71C (Cdk2(H71C) (C177A)) | Rate constant with Cdk2 H71C (Cdk2(H71C) (C177A)) | Rate enhancement, Cdk2 N272 (Cdk2(N272C) (C177A)) | Rate constant with Cdk2 N272C (Cdk2(N272C) (C177A)) | Rate enhancement, Cdk2 R122C (Cdk2(R122C) (C177A)) | Rate constant with Cdk2 R122C (Cdk2(R122C) (C177A)) | SMILES | Rate constant with glutathione (k(GSH)) [2] | Rate constant with Glutathione [2] | further results
0.8554 | 0.471 | 1.933 | 0.0064 | 0.003524 | 1.146 | 2.081 | 1.146 | 0.5929 | 2.106 | 0.005756 | 0.003169 | 0.007207 | 0.003968 | 0.008585 | 0.004727 | 0.003956 | 0.002178 | C=CC(=O)Nc1[nH]nc(C2CC2)c1-c1ccc2c(c1)OCO2 [CA-041] | 0.5441 | 0.5506 | Rate enhancement, Cdk2 F80C (Cdk2(C177A, F80C)): 0
5.246 | 0.3207 | 0.3138 | 1.04 | 0.06356 | 0.1733 | 2.835 | 0.1733 | 0.5523 | 2.895 | 0.5066 | 0.03097 | 1.035 | 0.06327 | 0.7612 | 0.04653 | 0.3475 | 0.02124 | C=CC(=O)Nc1ccc(C(=O)OC)cc1 [CA-028] | 0.05986 | 0.06113 | Rate enhancement, Cdk2 F80C (Cdk2(C177A, F80C)): 1.175; Rate constant with Cdk2 F80C (Cdk2(C177A, F80C)): 0.07185
16.35 | 0.4929 | 0.2299 | 0.7973 | 0.02403 | 0.07947 | 2.637 | 0.07947 | 0.3457 | 2.652 | 0.3942 | 0.01188 | 3.388 | 0.1021 | 0.04599 | 0.001386 | 0.259 | 0.007805 | C=CC(=O)Nc1ccc(C(=O)NC2CCCC2)cc1 [EL-1114] | 0.02997 | 0.03014 | Rate enhancement, Cdk2 F80C (Cdk2(C177A, F80C)): 9.237; Rate constant with Cdk2 F80C (Cdk2(C177A, F80C)): 0.2784
